In publication PMC12040169 (PLOS Biology, 2025):

test: in vitro; conditions: human, hela cells, % viability

Row | SMILES | viability at 28.5 h, 10 µM
1 | O=C(NCc1cccnc1OCC(F)(F)F)c1ccc(=O)[nH]n1 [CBK305578] | 92.1%
2 | O=C(Cn1ccc(=O)[nH]c1=O)NCc1cccnc1OC1CCCC1 [CBK305582] | 94.9%
3 | CCOC(=O)Cc1csc(SC(C)C(=O)N2CCc3ccccc3C2)n1 (stereo not shown) [CBK305586] | 99.9%
4 | COCCn1nc(C(=O)N2CCCc3ccccc32)ccc1=O [CBK305590] | 85.1%
5 | CC(=O)Nc1nc(CN2CCOC(c3ccc(F)cc3)C2)cs1 (stereo not shown) [CBK305591] | 98.5%
6 | O=C(Cn1cccn1)NCC(c1ccccc1Cl)N1CCOCC1 (stereo not shown) [CBK305593] | 93.1%
7 | CCCC1(C)NC(=O)N(Cc2coc(-c3cccs3)n2)C1=O (stereo not shown) [CBK305594] | 100%
8 | O=C(NCCc1ccsc1)N1CCN(c2ccncc2)CC1 [CBK305595] | 102%
9 | CN(CC1CCCN(C(=O)Nc2cccc(Cl)c2)C1)C(=O)OC(C)(C)C (stereo not shown) [CBK305597] | 94.2%
10 | CN1CCN(c2nc(-c3ccc4c(c3)CCCC(=O)N4)cs2)CC1 [CBK305600] | 98.6%
11 | O=C1NC(=O)C2(CCN(C(=O)c3csc4c3CCCC4)CC2)N1 [CBK305601] | 97.2%
12 | CC(=O)N1CCN(C(=O)C(C)S(=O)(=O)c2ccccc2F)CC1 (stereo not shown) [CBK305603] | 97.7%
13 | CCOc1ccc(CN(C)CC(=O)Nc2cc(C)no2)cc1 [CBK305605] | 79.8%
14 | CCOc1ccc(CN(C)C(C)C(=O)Nc2cc(C)no2)cc1 (stereo not shown) [CBK305607] | 96.6%
15 | COCCNC(=O)CN(C)c1nc(-c2ccncc2)nc2ccccc12 [CBK305611] | 94.2%
16 | Cn1cc(CCNC(=O)NC2CCN(c3ncccn3)CC2)cn1 [CBK305612] | 104%
17 | CCOC(=O)c1cnn2c(O)cc(CN(Cc3ccco3)C3CC3)nc12 [CBK305613] | 82.3%
18 | COc1ccc(CC(=O)NCC(c2cccs2)N2CCOCC2)cc1F (stereo not shown) [CBK305618] | 99.5%
19 | CS(=O)(=O)NC1CCCN(c2ncnc3ccccc23)C1 (stereo not shown) [CBK305619] | 111%

Row | SMILES | viability at 28.5 h, 10 µM
20 | Cc1cc(C)n(CC(=O)NCC(c2cccs2)N2CCOCC2)n1 (stereo not shown) [CBK305620] | 102%
21 | Cc1cc(C)n(CC(C)CNC(=O)Cc2csc(N3CCCC3=O)n2)n1 (stereo not shown) [CBK305624] | 91.2%
22 | Cn1cc(-c2nc(C(=O)NC3CCCN(c4ncccn4)C3)cs2)cn1 (stereo not shown) [CBK305629] | 77.7%
23 | CC(C)c1nc(CC(=O)NCCS(=O)(=O)N2CCc3ccccc32)cs1 [CBK305630] | 84.5%
24 | Cc1occc1C(=O)Nc1nc(CC(=O)N(C)Cc2ccsc2)cs1 [CBK305631] | 83.8%
25 | Cc1nc(-c2ccsc2)sc1C(=O)NC1CCCN(c2ncccn2)C1 (stereo not shown) [CBK305632] | 87.6%
26 | Cn1cc(-c2nc(C(=O)NCC3CCN(c4ccccc4)C3)cs2)cn1 (stereo not shown) [CBK305633] | 84.8%
27 | CC1c2ccsc2CCN1C(=O)CC(NC(N)=O)c1cccc(Br)c1 (stereo not shown) [CBK305635] | 110%
28 | Cc1cc(NC(=O)CCc2c(C)nc(N3CCOCC3)[nH]c2=O)no1 [CBK305636] | 93.2%
29 | O=C(NCCNc1cnccn1)c1ccc(Br)cc1F [CBK305639] | 89.5%
30 | COCCn1c(SCc2nc3ccccc3nc2C)nc(C)c1C [CBK305651] | 106%
31 | Cc1c(C(=O)NC2CCCN(c3ncccn3)C2)cnn1C(C)(C)C (stereo not shown) [CBK305652] | 91.3%
32 | Cn1cc(CCNC(=O)Nc2ccc(N3CCCCC3)nc2)cn1 [CBK305656] | 95.2%
33 | Cc1nn(C)c2ncc(C(=O)N(C)Cc3ccc(C(C)(C)C)cc3)cc12 [CBK305657] | 99.9%
34 | O=C(NCc1cccs1)NC1CCCc2c1cnn2CCO (stereo not shown) [CBK305658] | 100%
35 | Cc1nc(COc2ccc(C(=O)N3CCCC(C(N)=O)C3)cc2)no1 (stereo not shown) [CBK305660] | 84.2%
36 | CCOC(=O)C1CCCN(C(=O)Nc2cc(C)on2)C1 (stereo not shown) [CBK305661] | 81.8%
37 | CCCNC(=O)CN1CCC(NC(=O)Cn2cc(Br)ccc2=O)CC1 [CBK305665] | 94%
